Data on two compounds can be found in US8158560B2, “Insecticidal arylpyrroline compounds” (Bayer CropScience AG, priority 2009, dated 2012).

Common to all, as to assay type: in vivo
In one assay the test system is Adoxophyes honmai. In words: Adoxophyes honmai test (ADXPFA), treated artificial diet. The conditions noted are these: 0.8 ppm, 2 dat. As for the experimental part:
Procedure: Broccoli seedlings of 4-5 leaf stage planted in a vinyl pot (9 cm diameter) are sprayed with the solution. After drying half of the leaves of the plants are cut and put into a A-PET cup. Ten larvae of Plutella xylostella L3 are released in the cup and the dish is placed at 25° C. After 4 days another half leaf is cut and added to the dish. After the specified period of time mortality in % is determined according to the figures of mortality used for evaluation. • 1 larva dead: 20% Efficacy • 5 larvae dead: 100% Efficacy Adoxophyes honmai—Test (ADXPFA)
Insect: Adoxophyes honmai from own culture
Material: 1 A-PET cup with lid
Food agent: 4.5 g of artificial diet powder Silkmate-Kantan-3®
(§1) Solvent pre-mixture: Sorpol® SD: Sorpol® BDB:Dimethylformamide=3:3:14
10 mg a i. is solved with 0.05 ml solvent pre-mixture. Water for dilution contains RME and AS (1000 ppm each) or 0.1% of spreader. Solutions are diluted at the rate of 1:5 for limit concentration determination.
Procedure: 4.5 g of artificial diet powder is put into a PET cup (10 cm diameter, 5 cm depth). The powder was leveled to make a layer in the bottom of the cup. […]
(§2) After the specified period of time mortality in % is determined according to the following criteria: • 1 larva dead: 20% Efficacy • 5 larvae dead: 100% Efficacy Frankliniella occidentalis—Spray-Test (FRANOC)

Assay [1] relates to Nephotettix cincticeps-MR, resistant strain, 3rd-4th instar nymphs. Kind of assay: Nephotettix cincticeps spray test (NEPHCI). As to conditions: 20 ppm, 7 dat. The protocol: Nephotettix cincticeps-Spray Test (NEPHCl)
Insect: Nephotettix cincticeps-MR, resistant strain, 3rd-4th instar nymphs from own culture
Plant: Rice seedlings (Oryza sativa var. Tamanishiki)
Material: ST-method container (200 ml desiccant polystyrene bottle) with a hole in the bottom sealed with metal mesh. The lid has a pit inside to keep desiccant, and it is used to sow rice seeds. The bottle is used upside down as “cover”, the lid with seedling is called “base”. Plastic stand-board with magnet labels to line the ST Bases up (“Stand”)
Solvent pre-mixture: Sorpol® SD: Sorpol® BDB:Dimethylformamide=3:3:14 10 mg a i. is solved with 0.05 ml solvent pre-mixture. Water for dilution contains RME and AS (1000 ppm each) or 0.1% of spreader. Solutions are diluted at the rate of 1:5 for limit concentration determination.
Procedure: On a pit in the center of a base (originally the desiccant space) pieces of paper towel are placed. 20-30 germinated rice seeds are sown on the paper and moistened with water. The base is covered with a plastic cup and kept in an incubator at 30° C. for five days.
The base with rice seedlings is placed on the Stand. Each base is sprayed with the solution.
After drying twelve 3rd-4th instar nymphs of Nephotettix cincticeps-MR are put on the base and confined with the cover. The ST containers on the Stands are kept in the testing room at 25° C. and 50-60% r.h., 16L8D lighting conditions.
After the specified period of time mortality in % is determined by rating according to the following scheme/criteria: Counting living moving insects, calculate mortality in % by the formula: […]

The subject of the next assay is Panonychus citri. Kind of assay: Panonychus citri spray test (METTCI). The conditions noted are these: 4 ppm, 7 dat, rating scheme b306. As for the experimental part:
Panonychus citri—Spray Test (METTCI)
Plant: Citrus plants, ca 8 cm height
as §1
(§3) 10 mg a i. is solved with 0.05 ml solvent pre-mixture.
(§4) Water for dilution contains RME and AS (1000 ppm each) or 0.1% of spreader. Solutions are diluted at the rate of 1:5 for limit concentration determination.
Procedure: 1 day before treatment mites were inoculated onto potted citrus plants, about 50 adults and some nymphs for 1 pot. The test solution is sprayed directly onto both mites and plants. After drying pots are stored at 25° C.
After the specified period of time mortality in % is determined by rating according to the following scheme/criteria.

The test system of assay [2] is Myzus persicae-resistant strain, mixed population. Kind of assay: Myzus persicae spray test (MYZUPE). The conditions noted are these: 4 ppm, 6 dat. As for the experimental part:
Myzus persicae—Spray Test (MYZUPE)
Insect: Myzus persicae-resistant strain, mixed population
Plant: Eggplant seedling (Solanum melongena var. Senryo 2gou) 2 leaf age (4-5 weeks after sowing), transplanted into vinyl pots of 60 mm diameter
Solvent pre-mixture: Sorpol® SD: Sorpol® BDB:Dimethylformamide=3:3:14; 10 mg a.i. is solved with 0.05 ml solvent pre-mixture. Water for dilution contains RME and AS (1000 ppm each) or 0.1% of spreader. Solutions are diluted at the rate of 1:5 for limit concentration determination.
Procedure: 1 day before treatment aphids are inoculated onto the testing plants, about 50 aphids per leaf, 100 for 1 pot. A paper label is placed on each pot. Solutions are sprayed directly onto both insects and plants. After drying pots are placed in the greenhouse at 20° C.-25° C. and 50-60% relative humidity.
After the specified period of time the mortality in % is determined and the rate of death is calculated according to the following scheme/criteria: […]

The subject of assay [3] is Frankliniella occidentalis. In words: Frankliniella occidentalis spray test (FRANOC). As to conditions: 0.16 ppm, 7 dat. The protocol:
as §2
Insect: Frankliniella occidentalis from own culture
Plant: Cucumber seedlings, cotyledon stage
as §1, §3, §4
Procedure: The solution is sprayed to a cucumber seedling. After drying, the plant is placed in a plastic stand. About fifty 1st-instar larvae were inoculated to the plant and covered with a cage. The plant is stored at 25° C.
After the specified period of time % efficacy is determined by rating feeding damages on the plant according to the following criteria: […]

The subject of assay [4] is Aulacophora femoralis 2nd instar larvae. In words: Aulacophora femoralis spray test (AUACFE). The conditions noted are these: 0.8 ppm, 6 dat, rating scheme b297. The protocol: Aulacophora femoralis—Spray Test (AUACFE)
Insect: Aulacophora femoralis 2nd instar larvae from own culture;
Material: PET cups with 5 ml soil and A-PET lids
Plant: Cucumber (Cucumis sativus var. Hanshiro), cotyledon stage; 1 plant per pot;
Solvent pre-mixture: Sorpol® SD: Sorpol® BDB:Dimethylformamide=3:3:14;
10 mg a.i. solved with 0.05 ml solvent pre-mixture. Water for dilution contains RME and AS (1000 ppm each) or 0.1% of spreader. Solutions are diluted at the rate of 1:5 for limit concentration determination.
Procedure: Solutions are sprayed onto a plant. After drying, plants are cut and put on the soil in the testing cup. Five larvae L2 are released into each testing cup.
The testing cup is covered with the lid and stored at 25° C. and 50-60% r.h., 16L8D lighting conditions.
After the specified period of time, the mortality in % is determined according to the following scheme/criteria: […]

The test system of assay [5] is Bemisia tabacii biotype B. Kind of assay: Bemisia tabacii spray test (BEMIAR). As to conditions: 100 ppm, 14 dat, rating scheme b324. As for the experimental part:
Bemisia tabacii—Spray-Test (BEMIAR)
Insect: Bemisia tabacii biotype B
Plant: Tomato seedlings, 5 leaf stage in vinyl pots of 40 mm diameter
as §1
10 mg a.i. is solved with 0.05 ml solvent pre-mixture. Water for dilution contains RME and AS (1000 ppm each) or 0.1% of spreader. Solutions are diluted at the rate of 1:5 for limit concentration determination.
Procedure: Solutions are sprayed to the plants. After drying treated pots are placed in the greenhouse where breeding BEMIAR for an infection-time of 24 h. Then the plants is placed in the testing room at 25° C. and 50-60% r.h., 16L8D lighting conditions.
After the specified period of time mortality in % is determined according to the following scheme/criteria: […]

Several values for one entry are separate records, joined by “and”; a condition that tells them apart may be missing. Identical values can stand only once.

As to “4-{3-[3,5-Bis(trifluoromethyl)phenyl]-3-(trifluoromethyl)-3,4-dihydro-2H-pyrrol-5-yl}-2-methyl-N-(thietan-3-yl)benzamide [Compound 1-19]”, the “Efficacy/day(s) of treatment” value with Adoxophyes honmai is 60%/2 dat; in assay [1] it was 20%/7 dat and 80%/7 dat; in the assay on Panonychus citri, 60%/7 dat; in assay [2], 90%/6 dat; in assay [2] (rating scheme) it was 98%/6 dat; in assay [3], 98%/7 dat. Further, the figures for the “Efficacy/day(s) of treatment” value in assay [4] and in assay [5] were 100%/6 dat and 100%/14 dat, respectively.
With `Cc1cc(C2=NOC(c3cc(C(F)(F)F)cc(C(F)(F)F)c3)(C(F)(F)F)C2)ccc1C(=O)NC1C[S+]([O-])C1` (stereo not drawn) [ExNo A-23 of WO 2009/080250, reference compound], the “Efficacy/day(s) of treatment” value in the assay with Adoxophyes honmai came out at 40%/2 dat; in assay [1], 40%/7 dat; in assay [2] it was 60%/6 dat; in assay [3], 60%/7 dat.
